Laboratory results published in US20230135152A1 (ACURASTEM INCORPORATED, priority 2020, published 2023).

Molecular target: PIKFYVE (Homo sapiens, UniProt Q9Y2I7)
Assay: PIKFYVE assay (luciferase ADP-Glo kinase assay, Promega)
Type: biochemical
Conditions: Table 3
Protocol: The activity of Compounds 1-20 was measured using a PIKFYVE assay (luciferase ADP-Glo kinase assay available from Promega Corp. of Madison, Wis.).
The activity of Compounds 39-90 was also measured using a PIKFYVE assay (luciferase ADP-Glo kinase assay available from Promega Corp. of Madison, Wis.).
The activity of Compounds 93-347 was also measured using a PIKFYVE assay (luciferase ADP-Glo kinase assay available from Promega Corp. of Madison, Wis.).

Chain of PIKFYVE (Q9Y2I7 whole entry): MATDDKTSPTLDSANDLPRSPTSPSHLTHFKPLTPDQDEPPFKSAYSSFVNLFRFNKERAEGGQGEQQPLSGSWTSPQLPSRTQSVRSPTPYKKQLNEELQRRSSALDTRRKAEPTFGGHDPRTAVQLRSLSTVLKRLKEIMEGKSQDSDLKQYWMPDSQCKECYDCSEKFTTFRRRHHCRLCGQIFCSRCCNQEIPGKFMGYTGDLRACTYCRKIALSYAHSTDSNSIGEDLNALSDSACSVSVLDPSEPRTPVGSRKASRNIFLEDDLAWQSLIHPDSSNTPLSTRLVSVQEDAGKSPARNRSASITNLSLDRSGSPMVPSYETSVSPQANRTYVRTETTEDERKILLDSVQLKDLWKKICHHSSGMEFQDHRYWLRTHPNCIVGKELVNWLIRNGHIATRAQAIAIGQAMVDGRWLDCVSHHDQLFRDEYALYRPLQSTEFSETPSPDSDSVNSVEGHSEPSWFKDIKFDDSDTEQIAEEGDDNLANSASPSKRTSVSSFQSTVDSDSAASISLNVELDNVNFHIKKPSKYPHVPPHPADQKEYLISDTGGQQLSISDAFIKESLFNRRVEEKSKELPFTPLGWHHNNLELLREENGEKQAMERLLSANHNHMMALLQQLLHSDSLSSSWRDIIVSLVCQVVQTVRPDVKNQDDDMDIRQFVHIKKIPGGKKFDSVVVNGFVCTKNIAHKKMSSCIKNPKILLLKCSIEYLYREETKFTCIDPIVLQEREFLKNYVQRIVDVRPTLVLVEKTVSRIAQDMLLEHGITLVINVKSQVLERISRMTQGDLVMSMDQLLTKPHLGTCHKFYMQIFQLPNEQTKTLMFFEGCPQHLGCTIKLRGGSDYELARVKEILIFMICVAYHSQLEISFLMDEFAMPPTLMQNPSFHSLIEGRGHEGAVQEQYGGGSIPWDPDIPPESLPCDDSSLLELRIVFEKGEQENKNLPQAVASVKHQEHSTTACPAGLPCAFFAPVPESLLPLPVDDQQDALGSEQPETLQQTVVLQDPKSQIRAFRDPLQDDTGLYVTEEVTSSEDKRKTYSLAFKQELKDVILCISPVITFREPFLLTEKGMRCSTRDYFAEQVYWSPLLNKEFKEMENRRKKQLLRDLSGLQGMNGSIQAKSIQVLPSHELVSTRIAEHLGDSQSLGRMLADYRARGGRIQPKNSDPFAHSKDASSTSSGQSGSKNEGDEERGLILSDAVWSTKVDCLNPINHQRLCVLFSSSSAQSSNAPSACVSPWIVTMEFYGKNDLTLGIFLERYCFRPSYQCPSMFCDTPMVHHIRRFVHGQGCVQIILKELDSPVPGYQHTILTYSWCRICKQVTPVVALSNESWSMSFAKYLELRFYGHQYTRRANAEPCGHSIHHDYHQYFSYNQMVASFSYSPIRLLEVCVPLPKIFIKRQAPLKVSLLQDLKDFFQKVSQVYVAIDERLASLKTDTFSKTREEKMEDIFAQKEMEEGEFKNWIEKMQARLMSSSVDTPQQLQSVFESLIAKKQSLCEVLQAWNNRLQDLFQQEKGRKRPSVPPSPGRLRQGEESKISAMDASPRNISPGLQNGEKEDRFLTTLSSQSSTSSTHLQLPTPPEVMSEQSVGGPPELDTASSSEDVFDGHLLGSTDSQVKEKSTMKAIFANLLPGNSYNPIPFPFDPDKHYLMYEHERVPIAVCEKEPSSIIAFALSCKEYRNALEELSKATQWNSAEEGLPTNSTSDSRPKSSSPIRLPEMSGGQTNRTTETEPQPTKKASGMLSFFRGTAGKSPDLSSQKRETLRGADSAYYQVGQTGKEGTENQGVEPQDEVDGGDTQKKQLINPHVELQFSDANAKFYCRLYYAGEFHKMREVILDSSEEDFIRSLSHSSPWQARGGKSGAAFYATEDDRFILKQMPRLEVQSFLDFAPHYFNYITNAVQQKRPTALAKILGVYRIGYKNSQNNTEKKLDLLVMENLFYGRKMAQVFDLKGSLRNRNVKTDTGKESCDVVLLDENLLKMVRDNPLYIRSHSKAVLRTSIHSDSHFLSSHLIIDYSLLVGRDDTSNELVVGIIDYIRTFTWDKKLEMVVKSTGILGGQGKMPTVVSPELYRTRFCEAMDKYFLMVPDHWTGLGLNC

SMILES | IC50
Cc1cccc(N2CC(C)N(c3cc(N4CCOCC4)nc(OCCc4cnn(C)c4)n3)C2=O)c1 (centres unmarked) [Compound 246, 4-methyl-3-(2-(2-(1-methyl-1H-pyrazol-4-yl)ethoxy)-6-morpholinopyrimidin-4-yl)-1-(m-tolyl)imidazolidin-2-one] | 100 to 5000 nM
Cc1cccc(-c2cn(C)n(-c3cc(N4CCOCC4)nc(OCCc4cnn(C)c4)n3)c2=O)c1 [Compound 247, 1-methyl-2-(2-(2-(1-methyl-1H-pyrazol-4-yl)ethoxy)-6-morpholinopyrimidin-4-yl)-4-(m-tolyl)-1,2-dihydro-3H-pyrazol-3-one] | 100 to 5000 nM
Cc1cccc(CC(=O)Nc2nc(OCCc3cnn(C)c3)cc(N3CCOCC3)n2)c1 [Compound 248, N-(4-(2-(1-methyl-1H-pyrazol-4-yl)ethoxy)-6-morpholinopyrimidin-2-yl)-2-(m-tolyl)acetamide] | > 5000 nM
Cc1cccc(CC(=O)Nc2cc(N3CCOCC3)nc(OCCc3cnn(C)c3)n2)c1 [Compound 249, N-(2-(2-(1-methyl-1H-pyrazol-4-yl)ethoxy)-6-morpholinopyrimidin-4-yl)-2-(m-tolyl)acetamide] | 100 to 5000 nM
Cc1cccc(CC(=O)N(C)c2nc(OCCc3cnn(C)c3)cc(N3CCOCC3)n2)c1 [Compound 250, N-methyl-N-(4-(2-(1-methyl-1H-pyrazol-4-yl)ethoxy)-6-morpholinopyrimidin-2-yl)-2-(m-tolyl)acetamide] | > 5000 nM
Cc1cccc(-c2ccn(-c3nc(OCCc4cnn(C)c4)cc(N4CCOCC4)n3)n2)c1 [Compound 251, 4-(6-(2-(1-methyl-1H-pyrazol-4-yl)ethoxy)-2-(3-(m-tolyl)-1H-pyrazol-1-yl)pyrimidin-4-yl)morpholine] | 3 to 10 nM
CN(c1nc(OCCc2cnn(C)c2)cc(N2CCOCC2)n1)c1ncc2ccccc2n1 [Compound 252, N-methyl-N-(4-(2-(1-methyl-1H-pyrazol-4-yl)ethoxy)-6-morpholinopyrimidin-2-yl)quinazolin-2-amine] | > 5000 nM
CN(C)Cc1ccc2nn(-c3cc(N4CCOCC4)nc(OCCc4cnn(C)c4)n3)cc2c1 [Compound 253, N,N-dimethyl-1-(2-(2-(2-(1-methyl-1H-pyrazol-4-yl)ethoxy)-6-morpholinopyrimidin-4-yl)-2H-indazol-5-yl)methanamine] | 10 to 100 nM
Cc1c2cc(CN(C)C)ccc2nn1-c1cc(N2CCOCC2)nc(OCCc2cnn(C)c2)n1 [Compound 254, N,N-dimethyl-1-(3-methyl-2-(2-(2-(1-methyl-1H-pyrazol-4-yl)ethoxy)-6-morpholinopyrimidin-4-yl)-2H-indazol-5-yl)methanamine] | 100 to 5000 nM
Cc1c2ccc(CO)cc2nn1-c1cc(N2CCOCC2)nc(OCCc2cnn(C)c2)n1 [Compound 255, (3-methyl-2-(2-(2-(1-methyl-1H-pyrazol-4-yl)ethoxy)-6-morpholinopyrimidin-4-yl)-2H-indazol-6-yl)methanol] | 10 to 100 nM
CO[C@H](CO)c1nc(N2CCOCC2)cc(-n2ccc(-c3cccc(C)c3C)n2)n1 [Compound 264, (S)-2-(4-(3-(2,3-dimethylphenyl)-1H-pyrazol-1-yl)-6-morpholinopyrimidin-2-yl)-2-methoxyethan-1-ol] | 100 to 5000 nM
CO[C@@H](CO)c1nc(N2CCOCC2)cc(-n2ccc(-c3cccc(C)c3C)n2)n1 [Compound 265, (R)-2-(4-(3-(2,3-dimethylphenyl)-1H-pyrazol-1-yl)-6-morpholinopyrimidin-2-yl)-2-methoxyethan-1-ol] | 100 to 5000 nM
CO[C@H](CO)c1nc(N2CCOCC2)cc(-n2ccc(-c3cccc4c3OCO4)n2)n1 [Compound 266, (S)-2-(4-(3-(benzo[d][1,3]dioxol-4-yl)-1H-pyrazol-1-yl)-6-morpholinopyrimidin-2-yl)-2-methoxyethan-1-ol] | 100 to 5000 nM
CO[C@@H](CO)c1nc(N2CCOCC2)cc(-n2ccc(-c3cccc4c3OCO4)n2)n1 [Compound 267, (R)-2-(4-(3-(benzo[d][1,3]dioxol-4-yl)-1H-pyrazol-1-yl)-6-morpholinopyrimidin-2-yl)-2-methoxyethan-1-ol] | 10 to 100 nM
CO[C@H](CO)c1nc(N2CCOCC2)cc(-n2ccc(-c3cccc4c3COC4)n2)n1 [Compound 270, (S)-2-(4-(3-(1,3-dihydroisobenzofuran-4-yl)-1H-pyrazol-1-yl)-6-morpholinopyrimidin-2-yl)-2-methoxyethan-1-ol] | 100 to 5000 nM
CO[C@@H](CO)c1nc(N2CCOCC2)cc(-n2ccc(-c3cccc4c3COC4)n2)n1 [Compound 271, (R)-2-(4-(3-(1,3-dihydroisobenzofuran-4-yl)-1H-pyrazol-1-yl)-6-morpholinopyrimidin-2-yl)-2-methoxyethan-1-ol] | 100 to 5000 nM

SMILES | IC50
CO[C@H](CO)c1nc(N2CCOCC2)cc(-n2nc(-c3cnc4ccccn34)cc2C)n1 [Compound 280, (S)-2-(4-(3-(imidazo[1,2-a]pyridin-3-yl)-5-methyl-1H-pyrazol-1-yl)-6-morpholinopyrimidin-2-yl)-2-methoxyethan-1-ol] | 100 to 5000 nM
CO[C@@H](CO)c1nc(N2CCOCC2)cc(-n2nc(-c3cnc4ccccn34)cc2C)n1 [Compound 281, (R)-2-(4-(3-(imidazo[1,2-a]pyridin-3-yl)-5-methyl-1H-pyrazol-1-yl)-6-morpholinopyrimidin-2-yl)-2-methoxyethan-1-ol] | 100 to 5000 nM
CO[C@H](CO)c1nc(N2CCOCC2)cc(-n2ccc(-c3cnc4ccccn34)n2)n1 [Compound 282, (S)-2-(4-(3-(imidazo[1,2-a]pyridin-3-yl)-1H-pyrazol-1-yl)-6-morpholinopyrimidin-2-yl)-2-methoxyethan-1-ol] | 100 to 5000 nM
CO[C@@H](CO)c1nc(N2CCOCC2)cc(-n2ccc(-c3cnc4ccccn34)n2)n1 [Compound 283, (R)-2-(4-(3-(imidazo[1,2-a]pyridin-3-yl)-1H-pyrazol-1-yl)-6-morpholinopyrimidin-2-yl)-2-methoxyethan-1-ol] | 100 to 5000 nM
CO[C@H](CO)c1nc(N2CCOCC2)cc(-n2nc(-c3c[nH]c4ncccc34)cc2C)n1 [Compound 284, (S)-2-methoxy-2-(4-(5-methyl-3-(1H-pyrrolo[2,3-b]pyridin-3-yl)-1H-pyrazol-1-yl)-6-morpholinopyrimidin-2-yl)ethan-1-ol] | 10 to 100 nM
CO[C@@H](CO)c1nc(N2CCOCC2)cc(-n2nc(-c3c[nH]c4ncccc34)cc2C)n1 [Compound 285, (R)-2-methoxy-2-(4-(5-methyl-3-(1H-pyrrolo[2,3-b]pyridin-3-yl)-1H-pyrazol-1-yl)-6-morpholinopyrimidin-2-yl)ethan-1-ol] | 10 to 100 nM
CO[C@H](CO)c1nc(N2CCOCC2)cc(-n2nc(-c3c[nH]c4cnccc34)cc2C)n1 [Compound 286, (S)-2-methoxy-2-(4-(5-methyl-3-(1H-pyrrolo[2,3-c]pyridin-3-yl)-1H-pyrazol-1-yl)-6-morpholinopyrimidin-2-yl)ethan-1-ol] | 100 to 5000 nM
CO[C@@H](CO)c1nc(N2CCOCC2)cc(-n2nc(-c3c[nH]c4cnccc34)cc2C)n1 [Compound 287, (R)-2-methoxy-2-(4-(5-methyl-3-(1H-pyrrolo[2,3-c]pyridin-3-yl)-1H-pyrazol-1-yl)-6-morpholinopyrimidin-2-yl)ethan-1-ol] | 100 to 5000 nM
CO[C@H](CO)c1nc(N2CCOCC2)cc(-n2nc(-c3c[nH]c4ccncc34)cc2C)n1 [Compound 288, (S)-2-methoxy-2-(4-(5-methyl-3-(1H-pyrrolo[3,2-c]pyridin-3-yl)-1H-pyrazol-1-yl)-6-morpholinopyrimidin-2-yl)ethan-1-ol] | 100 to 5000 nM
CO[C@@H](CO)c1nc(N2CCOCC2)cc(-n2nc(-c3c[nH]c4ccncc34)cc2C)n1 [Compound 289, (R)-2-methoxy-2-(4-(5-methyl-3-(1H-pyrrolo[3,2-c]pyridin-3-yl)-1H-pyrazol-1-yl)-6-morpholinopyrimidin-2-yl)ethan-1-ol] | 100 to 5000 nM
CO[C@H](CO)c1nc(N2CCOCC2)cc(-n2nc(-c3c[nH]c4cccnc34)cc2C)n1 [Compound 290, (S)-2-methoxy-2-(4-(5-methyl-3-(1H-pyrrolo[3,2-b]pyridin-3-yl)-1H-pyrazol-1-yl)-6-morpholinopyrimidin-2-yl)ethan-1-ol] | 100 to 5000 nM
CO[C@@H](CO)c1nc(N2CCOCC2)cc(-n2nc(-c3c[nH]c4cccnc34)cc2C)n1 [Compound 291, (R)-2-methoxy-2-(4-(5-methyl-3-(1H-pyrrolo[3,2-b]pyridin-3-yl)-1H-pyrazol-1-yl)-6-morpholinopyrimidin-2-yl)ethan-1-ol] | 100 to 5000 nM
CCc1cc(-c2ccccc2)nn1-c1cc(N2CCOCC2)nc([C@@H](CO)OC)n1 [Compound 294, (S)-2-(4-(5-ethyl-3-phenyl-1H-pyrazol-1-yl)-6-morpholinopyrimidin-2-yl)-2-methoxyethan-1-ol] | 10 to 100 nM
CCc1cc(-c2ccccc2)nn1-c1cc(N2CCOCC2)nc([C@H](CO)OC)n1 [Compound 295, (R)-2-(4-(5-ethyl-3-phenyl-1H-pyrazol-1-yl)-6-morpholinopyrimidin-2-yl)-2-methoxyethan-1-ol] | 10 to 100 nM
Cn1cc(CCOc2nc(N3CCOCC3)cc(-n3ccc(C4=CC(C)(C)CC=C4)n3)n2)cn1 [Compound 296, 4-(6-(3-(3,3-dimethylcyclohexa-1,5-dien-1-yl)-1H-pyrazol-1-yl)-2-(2-(1-methyl-1H-pyrazol-4-yl)ethoxy)pyrimidin-4-yl)morpholine] | 100 to 5000 nM
Cc1cccc(-c2ccn(-c3cc(N4CCOCC4)c4c(ccn4C)n3)n2)c1 [Compound 333, 4-(1-methyl-5-(3-(m-tolyl)-1H-pyrazol-1-yl)-1H-pyrrolo[3,2-b]pyridin-7-yl)morpholine] | 100 to 5000 nM
